Data as given in PMC6593233 (Frontiers in Pharmacology, 2019).
“Also recorded” adds a separate entry of the source. Read-outs that look alike come from different tables or passages of the source. One block for each compound: values may come before it.

Tests used:
hKv11.1 [1] = target: T1, hKv11.1 (Homo sapiens, UniProt Q12809); design: method as in Diness et al., 2017; details: hKv11.1, automated patch clamp; ref Diness et al., 2017; cited from earlier work
T1 construct: expressed in transfected cells

hKCa2.3 [2] = target: T2, hKCa2.3 (Homo sapiens, UniProt Q9UGI6); details: hKCa2.3, automated patch clamp, cited from earlier work
guinea pigs = experiment: In vivo closed chest atrially paced guinea pig model: AERP, QTcB, heart rate
Description: AP14145 was supplied by Acesion Pharma. […] For the Langendorff perfused heart experiments the compounds were dissolved in DMSO to make stock solutions and diluted to the final concentration in the Krebs-Henseleit buffer during the experiments. The final concentration of DMSO never exceeded 0.3% in the buffer. For the closed chest experiments, the compounds were first dissolved in PEG-400 and then diluted to a 50% saline and 50% PEG-400 solution. A total of 18 female guinea pigs (Dunkin Hartley HsdPoc : GH, Charles River) weighing 350-450 g were anesthetized with 5% isoflurane/oxygen in a sedation box. The guinea pigs were placed under artificial ventilation through a cannula placed in the trachea and anesthesia was reduced to 2.5% isoflurane/oxygen throughout the experiment. The temperature of the guinea pigs was monitored with a rectal thermometer and kept stable during the experiment using a heating lamp. Needle ECG electrodes were placed in each limb for ECG recordings (ADInstruments, UK). An electrophysiological catheter with eight electrodes (EPR-802) (Millar Inc., US) was placed in the right atrium via the right jugular vein. The two electrodes proximal to the tip of the catheter ([[…] et al., 2006]; [[…] et al., 2012]) were used to pace the atrium and six electrodes ([Waldo et al., 1996]; [[…] et al., 2003]; [Roukoz and […] et al., 2009]; [Grunnet et al., 2012]; [Zimetbaum, 2012]) were used to measure the electrical activity in the atrium. The AERP was measured as in the Langendorff experiments. Between the AERP recordings, the heart remained unpaced. An intravenous catheter (inside diameter 0.5, outside diameter 0.8 mm, Natsume Seisakusho, Japan) was placed in the right jugular vein alongside the electrophysiology catheter for drug infusion. […] First a period of 20 min baseline recording was conducted with AERP measurements every 5 min ( Figure 1 ). […] The AERP was measured every 5 min during baseline and every 2 min during and after infusion.

hKCa2.2 [3] = target: T3, hKCa2.2 (Homo sapiens, UniProt Q9H2S1); design: method as in Simó-Vicens et al., 2017b; details: hKCa2.2, manual patch clamp; ref Simó-Vicens et al., 2017b; cited from earlier work
[4] = tested on: isolated guinea pig hearts; experiment: Isolated Langendorff-perfused guinea pig hearts: AERP, QTcB, heart rate
Description: AP14145 was supplied by Acesion Pharma. Dofetilide was purchased at Sigma-Aldrich (St. Louis, USA) for the Langendorff and Hello Bio (Bristol, UK) for the closed chest in vivo experiments. Ondansetron was purchased at Sigma-Aldrich (St. Louis, USA). For the Langendorff perfused heart experiments the compounds were dissolved in DMSO to make stock solutions and diluted to the final concentration in the Krebs-Henseleit buffer during the experiments. The final concentration of DMSO never exceeded 0.3% in the buffer. For the closed chest experiments, the compounds were first dissolved in PEG-400 and then diluted to a 50% saline and 50% PEG-400 solution. The Langendorff perfused heart experiments were performed using a total of 24 female Dunkin Hartley guinea pigs (350–450 g, Charles River, Saint-Germain-Nuelle, France). Guinea pigs were anesthetized with an i.p. injection of pentobarbital 200 mg/ml, lidocaine hydrochloride 20 mg/ml, (Glostrup Apotek, Denmark), dose 0.150 ml/100 g body weight. A tracheotomy was performed and the guinea pigs were ventilated with 60 strokes*5 ml/min using a rodent ventilator (7025 Rodent ventilator, Ugo Basile, Italy). The hearts were excised and cannulated in situ through a small puncture of the aorta and connected to the Langendorff retrograde perfusion setup (Hugo Sachs Elektronik, Harvard Apparatus GmbH, March, Germany). The hearts were retrogradely perfused at a constant perfusion pressure of 60 mmHg at 37°C, pH 7.4, Krebs-Henseleit buffer (in mM: […] The aortic perfusion pressure was determined with an ISOTEC transducer (Hugo Sachs Elektronik) and the coronary flow was measured with an ultrasonic flow meter (Transonic Systems Inc., USA). Both were connected to an amplifier (Hugo Sachs Elektronik). The electrical activity was measured using volume conducted ECGs and by placing epicardial monophasic action potential electrodes (MAPs) on the atria and ventricles. The hearts were immersed into a temperature-controlled bath containing pH 7.4 Krebs-Henseleit buffer. Perfusion pressure, coronary flow, ECG, and MAP analogue signals sampled at a frequency of 2k/s and converted by a 16/30 data acquisition system from PowerLab systems (ADInstruments, Oxford, UK) and monitored using LabChart 7 software (ADInstruments). A bipolar pacing electrode was placed on the right atrial appendage for epicardial pacing stimulation using square pulses of 2 ms durations at three times diastolic threshold at 300 beats per minute. During the entire experiment, the ECG was monitored and monophasic action potential electrodes were placed on each chamber of the heart. The hearts were then left to stabilize for 20 min at intrinsic heart rhythm. The right AERP was measured by 10 regular stimuli (S1) followed by a premature extra stimulus (S2) applied with 1-ms increments. The AERP was defined as the longest S1–S2 interval failing to elicit an action potential. […] After a period of stabilization, every Langendorff experiment consisted of four 20-min episodes ( Figure 1 ). […] During the entire experiment, the AERP was measured every 5 min and the ECG was continuously monitored.

hKCa2.3 [5] = target: T2, hKCa2.3; design: method as in Simó-Vicens et al., 2017b; details: hKCa2.3, manual patch clamp; ref Simó-Vicens et al., 2017b; cited from earlier work
hKCa2.3 [6] = target: T2, hKCa2.3; experiment: Automated patch clamp (QPatch), IKCa in HEK293 cells stably expressing hKCa2.3; format: cell-based
Description: (§1) The KCa2.2 manual patch-clamp experiments and KCa2.2/KCa2.3 QPatch experiments were conducted using symmetrical K^+ solutions. The extracellular solution contained (in mM) 0.1 CaCl2, 3 MgCl2, 154 KCl, 10 HEPES, and 10 glucose (pH = 7.4 and 285–295 mOsm). The intracellular solution contained (in mM) 8.106 CaCl2 (final free Ca^2+ concentration of 400 nM), 1.167 MgCl2, 10 EGTA, 108 KCl, 10 HEPES, 31.25/10 KOH/EGTA, and 15 KOH (pH = 7.2).
(§2) Bicuculline methiodide was used as a positive control for KCa2 specific current at the beginning and the end of the experiment.
(§3) The cells were cultured in Dulbecco’s modified Eagle’s medium (DMEM1965, Thermo Fisher, USA) supplemented with 26.2 mM NaHCO3, 25 mM HEPES, 10 ml L^-1 Glutamax (Gibco, USA), 10% fetal bovine serum (Biowest, France), 100 U ml^-1 of penicillin/streptomycin (Sigma, Germany), and 100 µg/ml Geneticin (Gibco, UK) […]
(§4) For IKCa and IKr, the mean of the last three data points was used for further analysis. […] Individual IC50 values were calculated for each experiment and then used to obtain the final mean ± S.E.M.

hKCa2.2 [7] = target: T3, hKCa2.2; experiment: Manual whole-cell patch clamp, IKCa in HEK293 cells transiently transfected with hKCa2.2; format: cell-based
Description: These stock solutions were stored at −20°C and aliquots were solubilized at the desired concentration on the day of the experiment.
as §1
as §3, with “France), and” for “France),”, “Germany); 1 to 2 days after the transfection, patch clamp experiments were conducted.” for “Germany), and 100 µg/ml Geneticin (Gibco, UK)”
Manual patch clamp recordings were made using a HEKA EPC9 amplifier and the PatchMaster software (HEKA Elektronik, Germany) at room temperature using the whole cell configuration. Fluorescence was used to detect successfully transfected cells. […]
as §4

hKCa2.2 [8] = target: T3, hKCa2.2; experiment: Automated patch clamp (QPatch), IKCa in HEK293 cells stably expressing hKCa2.2; format: cell-based; details: hKCa2.2, automated patch clamp, present study, n = 8
Description: as §1, §2, §3, §4

hKv11.1 [9] = target: T1, hKv11.1; experiment: Automated patch clamp (QPatch), IKr in CHO-K1 cells stably expressing Kv11.1; format: cell-based; details: Kv11.1 current
Description: For the Kv11.1 experiments conducted on the automated QPatch machine, the extracellular solution contained (in mM) 145 NaCl, 4 KCl, 2 CaCl2, 1 MgCl2, 10 HEPES, and 10 glucose (pH = 7.4 and 305 mOsm adjusted with sucrose). The intracellular solution contained (in mM) 120 KCl, 31.25/10 KOH/EGTA, 5.4 CaCl2, 1.75 MgCl2, 4 mM Na2ATP, and 10 HEPES (pH = 7.2 and 285–296 mOsm adjusted with sucrose). Recordings were made before and after application of drug.
The cells were cultured in DMEM F12 (Sigma, Germany), 10% fetal bovine serum (Biowest, France) and 100 U ml^-1 of penicillin/streptomycin (Sigma, Germany), 100 µg/ml Geneticin (Gibco, UK), 100 µg/ml hygromycin (Sigma-Aldrich), and 2 mM glutamine (Gibco, UK).
On the day of experiment, when cells reached about 70–90% confluency, they were detached with Detachin (Genlantis, USA) and resuspended in serum free medium (C5467 SAFC, Switzerland) containing 25 mM HEPES, 0.04 mg/ml soy bean trypsin inhibitor (T6522 Sigma-Aldrich), and 100 U/ml penicillin/streptomycin and were kept in suspension for QPatch experiments.
Automated patch-clamp whole-cell recordings were performed using a QPatch 16 HT system and disposable single-hole QPlates (Sophion, Denmark). […]

hKCa2.2 [10] = target: T3, hKCa2.2; design: method as in Simó-Vicens et al., 2017a; details: hKCa2.2, automated patch clamp; ref Simó-Vicens et al., 2017a; cited from earlier work

T1 sequence (Q12809 whole entry): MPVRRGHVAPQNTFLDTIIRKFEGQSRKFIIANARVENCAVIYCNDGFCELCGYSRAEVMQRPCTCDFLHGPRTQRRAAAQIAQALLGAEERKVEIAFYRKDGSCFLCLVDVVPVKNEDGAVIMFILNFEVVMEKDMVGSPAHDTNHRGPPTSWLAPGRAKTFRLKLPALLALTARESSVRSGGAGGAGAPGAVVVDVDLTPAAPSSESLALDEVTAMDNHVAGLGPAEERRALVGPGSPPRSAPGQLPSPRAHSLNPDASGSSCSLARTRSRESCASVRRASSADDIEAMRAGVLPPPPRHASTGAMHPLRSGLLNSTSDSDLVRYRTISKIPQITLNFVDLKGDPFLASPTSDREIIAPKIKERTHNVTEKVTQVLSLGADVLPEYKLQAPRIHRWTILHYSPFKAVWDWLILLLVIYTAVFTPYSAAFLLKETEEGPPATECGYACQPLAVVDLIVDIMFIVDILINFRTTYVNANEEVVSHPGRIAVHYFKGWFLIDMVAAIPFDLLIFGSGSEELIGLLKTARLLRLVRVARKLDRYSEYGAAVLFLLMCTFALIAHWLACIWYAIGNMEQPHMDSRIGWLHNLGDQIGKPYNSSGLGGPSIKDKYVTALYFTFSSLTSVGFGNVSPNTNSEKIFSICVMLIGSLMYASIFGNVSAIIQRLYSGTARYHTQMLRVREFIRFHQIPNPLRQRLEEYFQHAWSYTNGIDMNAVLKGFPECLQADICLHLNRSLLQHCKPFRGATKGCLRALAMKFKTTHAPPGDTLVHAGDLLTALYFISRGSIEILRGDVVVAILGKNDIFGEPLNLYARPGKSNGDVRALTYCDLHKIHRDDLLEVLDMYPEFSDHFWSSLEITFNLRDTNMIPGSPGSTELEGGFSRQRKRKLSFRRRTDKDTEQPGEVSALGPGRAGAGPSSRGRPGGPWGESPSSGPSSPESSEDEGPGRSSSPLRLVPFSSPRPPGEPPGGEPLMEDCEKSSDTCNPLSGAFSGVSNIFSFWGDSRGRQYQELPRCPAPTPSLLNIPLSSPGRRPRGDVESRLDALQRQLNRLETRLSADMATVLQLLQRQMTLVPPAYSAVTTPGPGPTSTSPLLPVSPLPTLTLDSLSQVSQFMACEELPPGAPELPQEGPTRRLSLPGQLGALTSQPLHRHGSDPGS

Compound: CC(=O)Nc1cccc2[nH]c(N[C@H](C)c3cccc(C(F)(F)F)c3)nc12 [AP14145]
IC50 (hKv11.1 [1]): 71.8 µM
IC50 (hKCa2.3 [2]; ref Diness et al., 2017): 1.3 µM
AERP (maximum during infusion) (guinea pigs; 13.3 mg/kg infused over 20 min, TMC 75 ± 3 ms): 113 ± 6 ms
AERP (guinea pigs; after 6 min of i.v. infusion (4 mg/kg given), TMC 72 ± 2 ms): 97 ± 6 ms
IC50 (hKCa2.2 [3]): 1.1 µM
AERP ([4]; 10 µM, end of wash-in, TMC 61 ± 5 ms): 77 ± 2 ms
AERP (maximum) ([4]; 30 µM, TMC 64 ± 6 ms): 93 ± 2 ms
IC50 (hKCa2.3 [5]): 1.1 µM

IC50 (hKCa2.3 [6]; hKCa2.3, automated patch clamp, present study, n = 8): > 30 µM
Effect on IKCa (hKCa2.3 [6]; up to 30 µM, hKCa2.3 current): did not inhibit IKCa
IC50 (hKCa2.2 [7]; hKCa2.2, manual patch clamp, present study): > 1 µM
IC50 (hKCa2.2 [8]): > 30 µM
Compound: Cc1nccn1CC1CCc2c(c3ccccc3n2C)C1=O (stereo not drawn) [Ondansetron]
Effect on IKCa (hKCa2.2 [7]; 1 µM, hKCa2.2-expressing HEK cells, 400 nM intracellular calcium, n = 5): failed to inhibit IKCa; also recorded: did not inhibit IKCa
QTcB ([4]; 3 µM, TMC 269 ± 6 ms): 294 ± 5 ms
Effect on AERP compared to TMC ([4]; concentrations up to 3µM): did not affect AERP significantly
Effect on HR compared to TMC ([4]; concentrations up to 3µM): did not significantly affect HR
Concentration from which IKr is blocked (hKv11.1 [9]): ≥ 3000 nM

Compound: CN(CCOc1ccc(NS(C)(=O)=O)cc1)CCc1ccc(NS(C)(=O)=O)cc1 [Dofetilide]
IC50 (hKCa2.3 [2]; ref Simó-Vicens et al., 2017a): 90 µM
Effect on AERP (guinea pigs; 0.01 mg/kg infused over 20 min): No effect on AERP
HR, % of the baseline average (guinea pigs; 0.01 mg/kg, minimum, 5 min after end of infusion, TMC 93 ± 2%): 82 ± 3%
QTcB (guinea pigs; after 5 min of infusion, 0.01 mg/kg over 20 min, TMC 280 ± 9 ms): 319 ± 11 ms
HR, % of baseline values ([4]; 10 nM, TMC 94 ± 4%): 83 ± 3%
QTcB ([4]; 10 nM, TMC 271 ± 5 ms): 306 ± 9 ms
AERP ([4]; 30 nM, TMC 64 ± 6 ms): 80 ± 4 ms
HR, % of baseline values ([4]; 30 nM, TMC 91 ± 4%): 80 ± 3%
QTcB ([4]; 30 nM, TMC 269 ± 6 ms): 313 ± 9 ms
IC50 (hKCa2.2 [10]): 60 µM
